The source of these data is paper PMC8780580, “The Neuroactive Steroid Pregnanolone Glutamate: Anticonvulsant Effect, Metabolites and Its Effect on Neurosteroid Levels in Developing Rat Brains” (Pharmaceuticals, 2021).

Counter-ions that a name gives are not always drawn.

The test system of one series is α4β3γ2 GABAARs. Details: method as in PMID 15294445. The settings on record: at 100 μM; cited from earlier work.
The next series deals with α4β3δ GABAARs. Details: method as in PMID 15294445. The settings on record: cited from earlier work.
A short description of series [1]: Steroidomic (GC-MS/MS) analysis of hippocampal tissue after PA-G administration.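 For all read-outs here: hippocampal steroids quantified by GC-MS/MS, covering free and conjugated forms after hydrolysis, compared against intact rats and rats injected with CDX vehicle alone, five animals per group.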 The settings on record: for fold increase in the concentration in the rat hippocampus above the basal levels / percentage of total significantly increased (5β) steroids in the rat hippocampus / concentration at 20 min: 20 min after PA-G i.p., 1 mg/kg in CDX; for increase in concentration compared with basal levels: after PA-G i.p.; for increase in concentration compared with basal levels / concentration at 20 min: 1 mg/kg; for concentration at 20 min: male, Wistar, rat, in vivo, ip, Steroid concentration in hippocampal tissue, PA-G-Treated (P).
Experimental: In a separate experiment, samples of the hippocampus were obtained from male albino Wistar rats in 6 experimental groups consisting of P12 and P25 animals that were either intact (I), controls (C, i.p. application of a solution of CDX), or in the experimental group (i.p. application of PA-G in a solution of CDX at a dose of 1 mg/kg). Each group consisted of 5 animals. The animals were sacrificed using ether anaesthesia (Penta, Czech Republic) 30 min after administration of the drug. The hippocampi were quickly removed, weighed, and frozen at −80 °C in sterile plastic microvials until analysis.
An amount of 17–100 mg of the hippocampal tissue was minced and then administered into screw-cap tubes. Next, 2 mL of methanol with a mixture of internal standards was added, and the samples were incubated for 1 week in a refrigerator at 4 °C with agitation for 2 min once a day. Afterwards, the extract was transferred into new screw-cap tubes and dried in a vacuum centrifuge at 45 °C. After that, 1 mL of water of chromatographic purity was added, and the samples were further treated as described in our recently published paper [76].
Briefly, the unconjugated steroids were extracted from a testing sample with diethyl-ether, the extract was dried, and the lipids were separated by partitioning between a mixture of methanol with water (4:1, v/v) and pentane. The pentane phase was discarded, and the polar phase was dried and used for further analysis of the unconjugated steroids. Steroid conjugates remaining in the polar residue after diethyl ether were hydrolyzed to their parent hydroxy steroids (unconjugated molecules) and analyzed.

The conditions of series [2]: within 0.5 min of uptake; cited from earlier work.
For series [3], the system named is pentylenetetrazol-induced seizures. Description: Pentylenetetrazol (PTZ)-induced seizures in 12- and 25-day-old rats. In kind it is in vivo, male Wistar albino rats. On the procedure: Solutions of PA-G and PA-S were administered intraperitoneally at a concentration of 1 mg/mL, and doses of 1, 5, 10, and 20 mg/kg were used. The solutions of zuranolone were administered intraperitoneally at a concentration of 1 mg/mL, and doses of 0.5, 1, 5, and 10 mg/kg were used. Controls were injected with CDX solution in a volume corresponding to the highest dose (i.e., 20 mL/kg). The same control group was used for PA-S and PA-G. Pentylenetetrazol (PTZ, Sigma Aldrich, Gillingham, Dorset, UK) was dissolved in water in a concentration of 50 mg/mL and was administered subcutaneously at a dose of 100 mg/kg 20 min after the administration of PA-G or PA-S. Each age and dose group comprised 8 animals. The rats were placed individually into plexiglass boxes and were then observed for 30 min after PTZ injection. The incidence, severity, and latencies of seizures were assessed. Younger animals were placed on a pad heated to 34 °C, i.e., to the temperature in the nest for the whole duration of the experiment because of immature thermoregulation. Generalized tonic-clonic or clonic seizures with a loss of righting reflexes were present after a dose of 100 mg/kg of PTZ in all control animals in both age groups. […] The severity of seizures was quantified using a five-point scale as follows: 0—no changes; 0.5—abnormal behaviour (e.g., automatisms, increased orienting reaction); 1—isolated myoclonic jerks; 2—atypical or prolonged minimal seizures; 3—clonic seizures (mS) involving head and forelimb muscles with preserved righting reflexes (older-term minimal pentetrazol seizures); 4—generalized seizures without the tonic phase (GCS); 5—complete generalized tonic-clonic seizures (GTCS).

For another series, the system named is NMDARs. As to conditions: NMDA-induced currents, transfected HEK293 cells; cited from earlier work.
Series [4] deals with GABAARs. Details: method as in PMID 29886074. The settings on record: isolated pyramidal neurons of the rat hippocampus, cited from earlier work.
Series [5] concerns GABAARs. As to conditions: allosteric displacement of [35S]-TBPS from the picrotoxin binding site on GABAARs; cited from earlier work.
For a further series, the system named is postpartum depression. Details: method as in PMID 34190962. The settings on record: women with postpartum depression, Phase 3 clinical trial; cited from earlier work.
The mark [6] stands for this setting: P12 rats, i.p. doses of 5 and 10 mg/kg.

In the case of `CC(=O)[C@@]1(O)CCC2C3CC[C@@H]4C[C@H](O)CC[C@]4(C)C3CC[C@@]21C` (stereo partly drawn) [17-OH-PA, 17-hydroxy-pregnanolone], the greatest response with α4β3γ2 GABAARs is given as 20%. For the same molecule, the maximum efficacy with α4β3δ GABAARs is given as 57%. Further, the EC50 with α4β3δ GABAARs (read-out: EC50 (potentiation of responses)) was 3.5 µM. The “proportion of the brain's 5β-steroids in the tissue” value in [1] (20 min after PA-G administration) is recorded as “about three-quarters”. Moreover, the “fold increase in the concentration in the rat hippocampus above the basal levels” value is recorded as 562 x in series [1] (P12) and 35.8 x in [1] (P25). Moreover, the “percentage of total significantly increased (5β) steroids in the rat hippocampus” value in series [1] (P12) turned out to be 73.7%; in series [1] (P25) it was 75.9%. Besides, the “increase in concentration compared with basal levels” value was “up to 560 fold” in [1] (P12 animals) and 36 fold in series [1] (P25 animals). Moreover, in series [1] (P12 vs. P25 animals, 20 min after PA-G administration), the “metabolite of PA-G identified in hippocampus” value is recorded as “major metabolite”. The concentration at 20 min came out at 518 ng/g in [1] (12-day-old rats) and 40.8 ng/g in series [1] (25-day-old rats).

`C[C@]12CC[C@H](OS(=O)(=O)O)CC1=CC[C@@H]1[C@@H]2CC[C@]2(C)C(=O)CC[C@@H]12` [Dehydroepiandrosterone sulfate (DHEA-S), 17-oxo-androst-5-en-3β-yl 3-sulfate]: the desulfation in series [2] is given as greater than 50%. The concentration at 20 min in [1] (12-day-old rats) stood at 4.86 ng/g; in [1] (25-day-old rats), 1.52 ng/g.

For `CC(=O)[C@H]1CCC2C3CC[C@@H]4C[C@H](OC(=O)[C@@H](N)CCC(=O)O)CC[C@]4(C)C3CC[C@@]21C` (stereo partly drawn) [PA-G, 20-oxo-5β-pregnan-3α-yl L-glutamyl 1-ester], the “latencies of GS” value in series [3] (P12 rats, Kruskal-Wallis over dose groups) is “increase in the latencies of GS”; in series [3] (P25 rats, i.p. 10 mg/kg), “prolonged”. Moreover, the “incidence of generalized seizures (GS)” value in series [3] (P12 rats, i.p. 20 mg/kg (highest dose tested)) is reported as “prevented the development of GS in all animals”. Further, the seizure severity entry in series [3] (P12 rats, i.p. 1, 5, 10, 20 mg/kg, Kruskal-Wallis over dose groups) is recorded as “suppressed seizure severity”; in [3] (P25 rats, Kruskal-Wallis over dose groups) it was “affected seizure severity”. Also, the “tonic phase (TP) of GTCS” value in series [3] (setting [6]) was “completely abolished TP”. The “incidence of GTCS” value in series [3] (P25 rats, i.p. 20 mg/kg) was “completely suppressed these seizures”. The “seizure severity (score)” value in series [3] (P25 rats, i.p. 20 mg/kg) is recorded as “decreased score”. Also, in the series on NMDARs, the IC50 was 73 µM. In the series on GABAARs [4], the “maximum potentiation of IGABA peak amplitude” value was “up to 422%”. Besides, the EC50 with GABAARs [4] (read-out: EC50 (increase of IGABA peak)) is 7 µM. Besides, the figures for the “fold increase in the concentration in the rat hippocampus above the basal levels” value in [1] (P12) and in [1] (P25) were 199 x and 9.76 x, respectively. Moreover, the “percentage of total significantly increased (5β) steroids in the rat hippocampus” value in series [1] (P12) was determined as 6.04%; in [1] (P25), 10.8%.

Regarding `C[C@@]1(O)CC[C@H]2[C@H](CC[C@@H]3[C@@H]2CC[C@]2(C)[C@@H](C(=O)Cn4cc(C#N)cn4)CC[C@@H]32)C1` [zuranolone], the “development of GS” value is “abolished” in series [3] (setting [6]) and “completely suppressed development of GS” in series [3] (P25 rats, all tested doses (0.5, 1, 5, 10 mg/kg i.p.)). Further, the seizure severity result was “significant decrease in seizure severity” in series [3] (setting [6]) and “significantly decreased seizure severity” in [3] (P25 rats, i.p. dose of only 1 mg/kg). Moreover, the “latencies of mS” value in series [3] (P25 rats) was “increase in the latencies of mS”. For the same molecule, in series [3] (P25 rats, i.p. doses of 5 and 10 mg/kg), the “development of mS” value is “suppressed the development of mS”. The IC50 with GABAARs [5] was 0.007 µM. Also, in the series with postpartum depression, the symptoms of depression result is “improved the symptoms of depression”.
